Source: patent publication US4442084A, “Analgesic and myotonolytic preparations” (Sandoz Ltd., priority 1979, dated 1984)
Like-named read-outs stand apart in the source and are kept apart here.

Legend:
[1] = Test for synergism: analgesia 3 hours after oral co-administration, adjuvans arthritis pain test on the rat; assay type: in vivo, rat (male OFA)
Experimental: In order to establish the presence or absence of synergism the basic analgesic test described above is employed, with analgesia measured three hours after administration of the test substance. Varying proportions of the two test-substance components are used, in fixed dose relationships, based upon the ED50 values previously established for the individual components. The degree of activity is then presented graphically. The test components are administered orally in tragacanth suspension and 5 to 15 animals employed per test run. The two test-components are administered in the following dose relationship: […]
Thus three basic curves may be obtained as shown diagramatically in FIG. 1 in which a curve x represents potentiation (i.e. super-additive synergism), a curve y represents additive synergism and a curve z represents antagonism.

[2] = Basic analgesic test: adjuvans arthritis pain test on the rat, oral administration; assay type: in vivo, rat (male OFA); conditions: for ED50: Rattus norvegicus, po, individual component
Experimental: J. of Pharmacology 31, 207-215 (1975)], e.g. as follows: […] This induces a secondary arthritis of the right hind-paw within the course of the next two or more days. The test for analgesic effectiveness is carried out 16 to 18 days later. A control measurement is carried out 30 minutes prior to administration of the test-substance, by flexing the ankle-joint of the right hind paw three times and recording the number of vocalisations (pain-reaction). […] The confidence limits are determined according to the method of […] Wilcoxon. All tests are carried out blind, employing 5 to 15 animals per test substance.

[3] = 1 hour after administration, read-out: ED50 at 1 hour after administration
[4] = 3 hours after administration, read-out: ED50 at 3 hours after administration
[5] = 5 hours after administration, read-out: ED50 at 5 hours after administration

Cc1ccc2c(-c3ccc(F)cc3)nc(=O)n(C(C)C)c2c1 [Component A, 1-Isopropyl-4-(4-fluorophenyl)-7-methyl-2(1H)-quinazolinone]
activity at 6.5 mg/kg ([1]; Rattus norvegicus, po, A 6.5 mg/kg, B 0 p.o. (relative dosage 1 : 0)): 50%
ED50 [2, 3]: ~18 mg/kg
ED50 [2, 4]: 6.5 mg/kg
ED50 [2, 5]: 7 mg/kg

Clc1ccc2nsnc2c1NC1=NCCN1 [Component B, 5-chloro-4-(2-imidazolin-2-ylamino)-2,1,3-benzothiadiazole]
% activity ([1]; A 0, B 3.6 mg/kg p.o. (relative dosage 0 : 1)): 50%
ED50 [2, 3]: ~1.8 mg/kg
ED50 [2, 4]: 3.6 mg/kg
ED50 [2, 5]: ~10 mg/kg
percentage printed in parentheses beside the ED50 at 5 hours (not explained) ([2]; p.o., 5 hours after administration): -60%
